Experiment: mean ionic activity coefficient (dimensionless); mn = molality of the nth substance listed, in mol/kg
Conditions: 101 kPa, Liquid

[Cl-].[Cl-].[Sr+2] [strontium chloride] + O
Conditions | mean ionic activity coefficient
283.15 K, m1 = 0.01 | 0.732
283.15 K, m1 = 0.02 | 0.668
283.15 K, m1 = 0.05 | 0.58
283.15 K, m1 = 0.1 | 0.519
283.15 K, m1 = 0.2 | 0.47
283.15 K, m1 = 0.3 | 0.45
293.15 K, m1 = 0.01 | 0.728
293.15 K, m1 = 0.02 | 0.663
293.15 K, m1 = 0.05 | 0.575
293.15 K, m1 = 0.1 | 0.513
293.15 K, m1 = 0.2 | 0.464
293.15 K, m1 = 0.3 | 0.444
298.15 K, m1 = 0.01 | 0.726
298.15 K, m1 = 0.02 | 0.661
298.15 K, m1 = 0.05 | 0.571
298.15 K, m1 = 0.1 | 0.509
298.15 K, m1 = 0.2 | 0.459
298.15 K, m1 = 0.3 | 0.439
298.15 K, m1 = 0.4 | 0.43
298.15 K, m1 = 0.5 | 0.428
298.15 K, m1 = 0.6 | 0.43
298.15 K, m1 = 0.7 | 0.435
298.15 K, m1 = 0.8 | 0.442
298.15 K, m1 = 0.9 | 0.451
298.15 K, m1 = 1 | 0.462
298.15 K, m1 = 1.2 | 0.489
298.15 K, m1 = 1.4 | 0.522
298.15 K, m1 = 1.6 | 0.562
298.15 K, m1 = 1.8 | 0.609
298.15 K, m1 = 2 | 0.665
298.15 K, m1 = 2.5 | 0.849
298.15 K, m1 = 3 | 1.12
298.15 K, m1 = 3.5 | 1.524
298.15 K, m1 = 3.52 | 1.544
303.15 K, m1 = 0.01 | 0.724
303.15 K, m1 = 0.02 | 0.658
303.15 K, m1 = 0.05 | 0.569
303.15 K, m1 = 0.1 | 0.507
303.15 K, m1 = 0.2 | 0.457
303.15 K, m1 = 0.3 | 0.437
313.15 K, m1 = 0.01 | 0.72
313.15 K, m1 = 0.02 | 0.653
313.15 K, m1 = 0.05 | 0.563
313.15 K, m1 = 0.1 | 0.5
313.15 K, m1 = 0.2 | 0.45
313.15 K, m1 = 0.3 | 0.429
323.15 K, m1 = 0.01 | 0.715
323.15 K, m1 = 0.02 | 0.648
323.15 K, m1 = 0.05 | 0.556
323.15 K, m1 = 0.1 | 0.493
323.15 K, m1 = 0.2 | 0.442
323.15 K, m1 = 0.3 | 0.421
333.15 K, m1 = 0.01 | 0.71
333.15 K, m1 = 0.02 | 0.642
333.15 K, m1 = 0.05 | 0.549
333.15 K, m1 = 0.1 | 0.485
333.15 K, m1 = 0.2 | 0.434
333.15 K, m1 = 0.3 | 0.413

From the NIST ThermoML archive (doi:10.1021/je400472v)
